These results are taken from ChEMBL document CHEMBL4828731, “Synthesis, structure-activity relationships and molecular docking studies of phenyldiazenyl sulfonamides as aromatase inhibitors” (Eur J Med Chem, 2021).

Calls of active or inactive are those of the source. No cut-off for these calls is given here.

Series [1] has as its target T1, Aromatase (Homo sapiens, UniProt P11511).
T1 sequence (P11511 whole entry): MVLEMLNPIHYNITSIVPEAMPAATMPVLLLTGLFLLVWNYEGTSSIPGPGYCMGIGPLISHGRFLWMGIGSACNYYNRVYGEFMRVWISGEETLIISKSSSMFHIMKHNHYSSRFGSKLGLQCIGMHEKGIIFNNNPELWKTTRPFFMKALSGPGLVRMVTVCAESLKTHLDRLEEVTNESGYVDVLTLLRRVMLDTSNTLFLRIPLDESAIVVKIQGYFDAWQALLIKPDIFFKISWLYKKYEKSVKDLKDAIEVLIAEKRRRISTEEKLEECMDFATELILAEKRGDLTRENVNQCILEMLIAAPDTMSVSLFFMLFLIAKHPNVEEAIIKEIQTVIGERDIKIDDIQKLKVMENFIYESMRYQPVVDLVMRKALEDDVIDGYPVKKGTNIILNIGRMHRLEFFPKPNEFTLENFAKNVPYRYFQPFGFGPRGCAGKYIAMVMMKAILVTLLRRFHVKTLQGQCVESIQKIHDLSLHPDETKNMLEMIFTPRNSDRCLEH
Put plainly: Inhibition of human aromatase assessed as reduction in fluorescence intensity using 7-methoxy-4-trifluoromethyl coumarin as a substrate at 1 uM by fluorimetric assay relative to control.

Series [2] deals with T1, Aromatase. Put plainly: Inhibition of human aromatase assessed as reduction in fluorescence intensity using 7-methoxy-4-trifluoromethyl coumarin as a substrate by fluorimetric assay.
In series [3] the test system is HFF-1. Put plainly: Cytotoxicity against human HFF-1 clls assessed as reduction in cell viability at 10 to 100 uM measured after 72 hrs by MTT assay. The format is cell-based. The settings on record: hff-1, 72 h, dose 10-100 µM.
Series [4] deals with MCF7. Put plainly: Cytotoxicity against human MCF7 cells assessed as reduction in cell metabolic activity up to 50 uM incubated for 24 hrs by MTT assay relative to control. The conditions noted are these: dose microM <=50. More on the design: scale not given: the % may be the effect or the level left. The format is functional.
The nature of series [5]: Selectivity index, ratio of IC50 for cytotoxicity against human HFF-1 cells to IC50 for cytotoxicity against human MCF7 cells measured after 24 hrs by MTT assay. The class given is toxicity, cell-based. The settings on record: HFF-1 cells and MCF7 cells, read-out: Selectivity Index.
In series [6] the test system is MCF7. Put plainly: Cytotoxicity against human MCF7 cells assessed as reduction in cell metabolic activity incubated for 72 hrs by MTT assay. The format is functional, cell-based.
The test system of series [7] is MCF7. Put plainly: Cytotoxicity against human MCF7 cells assessed as release of LDH up to 250 uM measured after 24 hrs by lactate dehydrogenase assay. The format is functional, cell-based. The conditions noted are these: dose microM <=250, time 24.0 hrs.
In series [8] the test system is MCF7. Put plainly: Cytotoxicity against human MCF7 cells assessed as reduction in cell metabolic activity up to 50 uM incubated for 48 hrs by MTT assay relative to control. The conditions noted are these: dose microM <=50. More on the design: scale not given: the % may be the effect or the level left. The format is functional.
Series [9] relates to MCF7. Put plainly: Cytotoxicity against human MCF7 cells assessed as reduction in cell metabolic activity at 250 uM incubated for 72 hrs by MTT assay relative to control. The class given is functional. More on the design: scale not given: the % may be the effect or the level left.
The target in series [10] is T1, Aromatase. Put plainly: Potency index, ratio of resveratrol IC50 to test compound IC50 for Inhibition of human aromatase assessed as reduction in fluorescence intensity using 7-methoxy-4-trifluoromethyl coumarin as a substrate by fluorimetric assay.
In series [11] the target is T1, Aromatase. Put plainly: Inhibition of human aromatase in T47D measured after 24 hrs by ELISA.
In series [12] the test system is MCF7. Put plainly: Cytotoxicity against human MCF7 cells assessed as reduction in cell metabolic activity at 100 uM incubated for 24 hrs by MTT assay relative to control. The class given is functional. More on the design: scale not given: the % may be the effect or the level left.
Series [13] is described as follows: Selectivity index, ratio of IC50 for cytotoxicity against human HFF-1 cells to IC50 for cytotoxicity against human MCF7 cells measured after 72 hrs by MTT assay. The class given is toxicity, cell-based. The settings on record: HFF-1 cells and MCF7 cells, read-out: Selectivity Index.
The test system of series [14] is MCF7. Put plainly: Cell cycle arrest in human MCF7 cells assessed as reduction in cells in S phase measured after 72 hrs by propidium iodide staining based flow cytometry analysis. The format is functional.
Series [15] deals with MCF7. Put plainly: Induction of apoptosis in human MCF7 cells assessed as cells in apoptotic stage at 100 uM measured after 24 hrs by Annexin V-APC/PI staining based flow cytometry analysis (Rvb= 7.3%). The format is functional.
In series [16] the test system is MCF7. Put plainly: Induction of apoptosis in human MCF7 cells assessed as increase in necrotic cells at 10 to 250 uM measured after 24 hrs by Annexin V-APC/PI staining based flow cytometry analysis relative to control. The conditions noted are these: dose 10-250 µM. The format is functional, cell-based.
In series [17] the test system is MCF7. Put plainly: Cytotoxicity against human MCF7 cells assessed as fold increase in release of LDH at 50 uM measured after 24 hrs by lactate dehydrogenase assay relative to control. The format is functional.
Series [18] in a line: Selectivity index, ratio of IC50 for cytotoxicity against human HFF-1 cells to IC50 for cytotoxicity against human MCF7 cells measured after 48 hrs by MTT assay. The format is toxicity, cell-based. The conditions noted are these: HFF-1 cells and MCF7 cells, read-out: Selectivity Index.
The test system of series [19] is MCF7. Put plainly: Cell cycle arrest in human MCF7 cells assessed as increase in cells in G1 phase measured after 72 hrs by propidium iodide staining based flow cytometry analysis. The format is functional.
Series [20] concerns MCF7. Put plainly: Induction of apoptosis in human MCF7 cells assessed as cells in apoptotic stage at 250 uM measured after 24 hrs by Annexin V-APC/PI staining based flow cytometry analysis (Rvb= 7.3%). The class given is functional.
The subject of series [21] is HFF-1. Put plainly: Cytotoxicity against human HFF-1 clls assessed as reduction in cell viability at 250 uM measured after 72 hrs by MTT assay. The format is cell-based. The settings on record: hff-1, 72 h.

As to `O=[N+]([O-])c1cccc(S(=O)(=O)Nc2ccc(/N=N/c3ccccc3)cc2)c1`, in series [1], the inhibition at 1 µM was less than 20%.
Regarding `O=S(=O)(Cc1ccccc1)Nc1ccc(/N=N/c2ccccc2)cc1`, the inhibition at 1 µM in series [1] is less than 20%.
With `Cc1ccc(S(=O)(=O)Nc2ccc(/N=N/c3ccccc3)cc2)cc1[N+](=O)[O-]`, the inhibition at 1 µM in series [1] was less than 20%.
`N#Cc1ccc(S(=O)(=O)Nc2ccc(/N=N/c3ccccc3)cc2)cc1`: the IC50 in series [2] was 7.9 µM. The Activity result was “Non-Toxic” in series [3], 20% in series [4], “Dose-Dependent Effect” in series [6] and 60% in [8]. In addition, the selectivity ratio at 24 h in [5] was more than 1.6. For the same compound, the result in series [7] was inactive.
`Cc1ccc(S(=O)(=O)N(Cc2nc3ccccc3[nH]2)c2ccc(/N=N/c3ccccc3)cc2)cc1[N+](=O)[O-]`: in [1], the inhibition at 1 µM was less than 20%.
On to `O=S(=O)(c1ccccc1)N(Cc1nc2ccccc2[nH]1)c1ccc(/N=N/c2ccccc2)cc1`, for which, in [1], the inhibition at 1 µM is less than 20%.
As for `COc1ccc(S(=O)(=O)N(Cc2nc3ccccc3[nH]2)c2ccc(/N=N/c3ccccc3)cc2)c(OC)c1`, the Activity in [9] is 134.2%; in series [3] it was “Non-Toxic”; in series [4], 20%; in [8], 60%. Also, the IC50 in series [2] was 5.7 µM. Besides, the inhibition at 1 µM in series [1] was determined as 50%. Besides, the selectivity ratio at 24 h in [5] was more than 2.25. For the same compound, the “Ratio IC50” value in [10] is listed as 14. For the same compound, the outcome in series [7] was inactive.
The compound `COc1cnc(NS(=O)(=O)c2ccc(N/C=C\C(=O)c3cc4ccccc4oc3=O)cc2)nc1` showed an IC50 in [11] of 6 µM.
As for `CS(=O)(=O)Nc1ccc(/N=N/c2ccccc2)cc1`, the inhibition at 1 µM in [1] was less than 20%.
As for `CCS(=O)(=O)Nc1ccc(/N=N/c2ccccc2)cc1`, in series [1], the inhibition at 1 µM is less than 20%.
Consider `O=S(=O)(Nc1ccc(/N=N/c2ccccc2)cc1)c1ccccc1`, for which, in [1], the inhibition at 1 µM is less than 20%.
With `N#Cc1ccc(S(=O)(=O)Nc2ccc(/N=N/c3ccccc3)cc2)c(Cl)c1`, the inhibition at 1 µM in [1] is less than 20%.
Same read-out and setting: the result for `CC(=O)Nc1ccc(S(=O)(=O)Nc2ccc(/N=N/c3ccccc3)cc2)cc1` reads less than 20%.
Regarding `O=S(=O)(Nc1ccc(/N=N/c2ccccc2)cc1)c1ccc(Cl)s1`, the inhibition at 1 µM in series [1] is less than 20%.
In the case of `COc1ccc(S(=O)(=O)Nc2ccc(/N=N/c3ccccc3)cc2)c(OC)c1`, the Activity in series [12] is 47.4%; in series [14], “Dose-Dependent Effect”; in series [15], 19.7%; in series [3], “Non-Toxic”; in [4], 20%; in series [6], “Dose-Dependent Effect”. The Activity is 60% in series [8], “Dose-Dependent Effect” in [19], 14.7% in series [20] and “Toxic” in series [21]. For the same compound, in series [13], the selectivity ratio at 72 h was found to be 3.74. Further, the IC50 in series [2] came to 1.6 µM. For the same compound, in [16], the result was Active. Moreover, the “fold change (FC)” value in series [17] is 2.5. Besides, the selectivity ratio at 48 h in series [18] worked out at 3.19. The selectivity ratio at 24 h in series [5] was determined as 2.12. For the same compound, in series [10], the “Ratio IC50” value is 50.
For `Oc1ccc(/C=C/c2cc(O)cc(O)c2)cc1` [RESVERATROL], the values for the Activity in series [12] and in series [6] were 78.2% and “Dose-Dependent Effect”, respectively. Besides, the result in [7] was inactive.
